This is an account of results in patent US20090099169A1, “Benzofuran Compounds As EP1 Receptor Antagonists” (GLAXO GROUP LIMITED, priority 2006, published 2009).

The target of one assay is T1, human EP3 receptor (Homo sapiens, UniProt P43115).
T1 construct: expressed in transfected cells; host or cells: CHO-K1
T1 sequence (P43115 1-390): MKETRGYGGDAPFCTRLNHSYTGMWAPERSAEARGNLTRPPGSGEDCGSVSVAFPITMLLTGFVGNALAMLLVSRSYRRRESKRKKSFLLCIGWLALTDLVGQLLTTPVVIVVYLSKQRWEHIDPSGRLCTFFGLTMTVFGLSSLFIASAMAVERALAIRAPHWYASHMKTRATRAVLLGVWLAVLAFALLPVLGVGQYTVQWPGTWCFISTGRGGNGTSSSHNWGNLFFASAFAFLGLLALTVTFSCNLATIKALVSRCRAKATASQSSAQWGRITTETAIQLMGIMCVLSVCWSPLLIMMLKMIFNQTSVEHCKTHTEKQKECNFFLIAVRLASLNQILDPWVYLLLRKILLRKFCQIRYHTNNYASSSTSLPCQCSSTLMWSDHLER
Put plainly: human EP3 calcium mobilisation assay. It is filed as cell-based. The conditions noted are these: CHO-K1 cells, antagonism of PGE2; averages of a number of experiments; read-out: functional pKi value (human EP3 calcium mobilisation assay) (converted). The protocol:
(§1) Briefly, the antagonist properties of compounds are assessed by their ability to inhibit the mobilisation of intracellular calcium ([Ca^2+]i) in response to activation of EP1 or EP3 receptors by the natural agonist hormone prostaglandin E2 (PGE2). Increasing concentrations of antagonist reduce the amount of calcium that a given concentration of PGE2 can mobilise. The net effect is to displace the PGE2 concentration-effect curve to higher concentrations of PGE2. The amount of calcium produced is assessed using a calcium-sensitive fluorescent dye such as Fluo-4, AM and a suitable instrument such as a Fluorimetric Imaging Plate Reader (FLIPR). Increasing amounts of [Ca^2+]i produced by receptor activation increase the amount of fluorescence produced by the dye and give rise to an increasing signal. The signal may be detected using the FLIPR instrument and the data generated may be analysed with suitable curve-fitting software.
(§2) The human EP1 or EP3 calcium mobilisation assay (hereafter referred to as ‘the calcium assay’) utilises Chinese hamster ovary-K1 (CHO-K1) cells into which a stable (PCIN; BioTechniques 20 (1996): 102-110) vector containing either EP1 or EP3 cDNA has previously been transfected. Cells are cultured in suitable flasks containing culture medium such as DMEM:F-12 supplemented with 10% v/v foetal calf serum, 2 mM L-glutamine, 0.25 mg/ml geneticin, 100 μM flurbiprofen and 10 μg/ml puromycin.
(§3) For assay, cells are harvested using a proprietary reagent that dislodges cells such as Versene. Cells are re-suspended in a suitable quantity of fresh culture media for introduction into a 384-well plate. Following incubation for 24 hours at 37° C. the culture media is replaced with a medium containing Fluo-4 and the detergent pluronic acid, and a further incubation takes place. Concentrations of compounds are then added to the plate in order to construct concentration-effect curves. This may be performed on the FLIPR in order to assess the agonist properties of the compounds. Concentrations of PGE2 are then added to the plate in order to assess the antagonist properties of the compounds.
(§4) The data so generated may be analysed by means of a computerised curve-fitting routine. The concentration of compound that elicits a half-maximal inhibition of the calcium mobilisation induced by PGE2 (pIC50) may then be estimated.
For orientation: Calcium flux is commonly read through the fluorescence of an indicator in the cells.

The target of assay [1] is T2, human EP1 receptor (Homo sapiens, UniProt P34995).
T2 sequence (P34995 1-402): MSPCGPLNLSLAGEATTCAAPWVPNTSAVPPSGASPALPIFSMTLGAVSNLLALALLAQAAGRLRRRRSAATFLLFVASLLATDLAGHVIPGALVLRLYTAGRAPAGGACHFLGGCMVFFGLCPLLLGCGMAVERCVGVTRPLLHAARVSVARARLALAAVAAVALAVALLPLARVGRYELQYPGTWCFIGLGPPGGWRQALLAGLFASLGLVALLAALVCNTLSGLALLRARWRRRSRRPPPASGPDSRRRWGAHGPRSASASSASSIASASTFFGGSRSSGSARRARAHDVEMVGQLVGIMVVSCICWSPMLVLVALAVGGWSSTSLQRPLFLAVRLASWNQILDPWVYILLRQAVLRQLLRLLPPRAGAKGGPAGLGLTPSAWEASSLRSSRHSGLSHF
The assay can be described thus: human EP1 calcium mobilisation assay. The conditions noted are these: CHO-K1 cells, antagonism of PGE2; averages of a number of experiments; read-out: functional pKi value (human EP1 calcium mobilisation assay) (converted). It is filed as cell-based. Also on record: expressed in transfected cells. The protocol: as §1, §2, §3, §4

The target in assay [2] is T2, human EP1 receptor. The assay can be described thus: Binding assay for the human prostanoid EP1 receptor (radioligand competition). The conditions noted are these: CHO-K1 membranes; [3H]-PGE2 for Examples 1-17, 19, 33, 34, 60 and 61, 3-{2-[5-Bromo-2-(2,4-difluorobenzyloxy)-phenyl]-5-methyl-pyrrol-1-yl}-6-[3H3-methoxy]methoxy-benzoic acid for the remaining; averages of a number of experiments; read-out: pIC50 value (binding assay for the human prostanoid EP1 receptor) (converted). On the set-up: expressed in transfected cells; host or cells: CHO-K1 (membranes). The protocol: Compound potencies are determined using a radioligand binding assay. In this assay compound potencies are determined from their ability to compete with tritiated prostaglandin E2 ([^3H]-PGE2) for binding to the human EP1 receptor.
This assay utilises Chinese hamster ovary-K1 (CHO-K1) cells into which a stable vector containing the EP1 cDNA has previously been transfected. Cells are cultured in suitable flasks containing culture medium such as DMEM:F-12 supplemented with 10% v/v foetal calf serum, 2 mM L-glutamine, 0.25 mg/ml geneticin, 10 μg/ml puromycin and 10 μM indomethacin.
Cells are detached from the culture flasks by incubation in calcium and magnesium free phosphate buffered saline containing 1 mM disodium ethylenediaminetetraacetic acid (Na2EDTA) and […] indomethacin for 5 min. The cells are isolated by centrifugation at 250×g for 5mins and suspended in an ice cold buffer such as 50 mM Tris, 1 mM Na2EDTA, 140 mM NaCl, 10 μM indomethacin (pH 7.4). The cells are homogenised using a Polytron tissue disrupter (2×10 s burst at full setting), centrifuged at 48,000×g for 20mins and the pellet containing the membrane fraction is washed (optional) three times by suspension and centrifugation at 48,000×g for 20mins. The final membrane pellet is suspended in an assay buffer such as 10 mM 2-[N-morpholino]ethanesulphonic acid, 1 mM Na2EDTA, 10 mM MgCl2 (pH 6). Aliquots are frozen at −80° C. until required.
For the binding assay the cell membranes, competing compounds and [^3H]-PGE2 (3 nM final assay concentration) are incubated in a final volume of 100 μl for 30 min at 30° C. All reagents are prepared in assay buffer. Reactions are terminated by rapid vacuum filtration over GF/B filters using a Brandell cell harvester. The filters are washed with ice cold assay buffer, dried and the radioactivity retained on the filters is measured by liquid scintillation counting in Packard TopCount scintillation counter.
The data are analysed using non linear curve fitting techniques to determine the concentration of compound producing 50% inhibition of specific binding (IC50).
Alternatively a similar assay may be carried out using 3-{2-[5-Bromo-2-(2,4-difluoro-benzyloxy)-phenyl]-5-methyl-pyrrol-1-yl}-6-[^3H3-methoxy]methoxy-benzoic acid instead of [^3H]-PGE2.
For the binding assay using 3-{2-[5-Bromo-2-(2,4-difluoro-benzyloxy)-phenyl]-5-methyl-pyrrol-1-yl}-6-[^3H3-methoxy]methoxy-benzoic acid instead of [^3H]-PGE2 the assay is carried out using a similar procedure to that described above using [^3H]-PGE2 with the following changes:
The cell membranes, competing compounds and 3-{2-[5-Bromo-2-(2,4-difluoro-benzyloxy)-phenyl]-5-methyl-pyrrol-1-yl}-6-[^3H3-methoxy]methoxy-benzoic acid (0.2 nM final assay concentration) are incubated in a final volume of 400 μl for 45 min at 37° C. All reagents are prepared in assay buffer. Reactions are terminated by rapid vacuum filtration over GF/B filters using a Brandell cell harvester. The filters are washed with water at ambient temperature, dried and the radioactivity retained on the filters is measured by liquid scintillation counting in Packard TopCount scintillation counter.
The preparation of 3-{2-[5-Bromo-2-(2,4-difluoro-benzyloxy)-phenyl]-5-methyl-pyrrol-1-yl}-6-methoxy-benzoic acid is described in WO 03/101959 and in Hall et al, Biorg. Med. Chem. Lett., 2007, 17, 916-920. The tritiated version may be prepared via conventional routes, e.g. from 3-{2-[5-bromo-2-(2,4-difluoro-benzyloxy)-phenyl]-5-methyl-pyrrol-1-yl}-6-hydroxy-benzoic acid or 3-{2-[5-bromo-2-(2,4-difluoro-benzyloxy)-phenyl]-5-methyl-pyrrol-1-yl}-6-hydroxy-benzoic acid methyl ester.
Background: In a radioligand displacement assay an active substance lowers the binding of a labelled ligand.

Where a name gives a salt, the structure may show the parent alone.

On to `CC(C)c1cc2cc(Cl)cc(Cc3ccc(C(=O)Nc4ccc(CN5CCCC5)cc4)o3)c2o1` [Example 53, 5-{[5-Chloro-2-(1-methylethyl)-1-benzofuran-7-yl]methyl}-N-[4-(1-pyrrolidinylmethyl)phenyl]-2-furancarboxamide], for which the Ki on human EP3 receptor is 501 to 10000 nM; on human EP1 receptor [1], ≤ 316 nM. At human EP1 receptor [2], the IC50 is ≤ 100 nM.

Consider `Cc1cc(C(=O)Nc2ccc(CN3CCCC3)cc2)nn1Cc1cc(Br)cc2cc(C(C)C)oc12` [Example 51, 1-{[5-Bromo-2-(1-methylethyl)-1-benzofuran-7-yl]methyl}-5-methyl-N-[4-(1-pyrrolidinylmethyl)phenyl]-1H-pyrazole-3-carboxamidehydrochloride], for which the Ki at human EP3 receptor is 501 to 10000 nM; on human EP1 receptor [1], ≤ 316 nM. The IC50 on human EP1 receptor [2] is ≤ 100 nM.

For `CC(C)c1cc2cc(Cl)cc(Cc3cccc(C(=O)NCC4CCNCC4)n3)c2o1` [Example 47, 6-{[5-Chloro-2-(1-methylethyl)-1-benzofuran-7-yl]methyl}-N-(4-piperidinylmethyl)-2-pyridinecarboxamidehydrochloride], on human EP3 receptor, the Ki was 501 to 10000 nM.

On to `Cc1cc(C(=O)N2CCOCC2)nn1Cc1cc(Cl)cc2cc(C3CC3)oc12` [Example 32, 4-({1-[(5-chloro-2-cyclopropyl-1-benzofuran-7-yl)methyl]-5-methyl-1H-pyrazol-3-yl}carbonyl)morpholine], for which the Ki is 501 to 10000 nM on human EP3 receptor and ≤ 316 nM at human EP1 receptor [1].

`Cc1cc(C(=O)Nc2ccc(CO)cc2)nn1Cc1cc(Br)cc2cc(C(C)C)oc12` [Example 71]: the Ki at human EP3 receptor is 501 to 10000 nM; on human EP1 receptor [1] it was ≤ 316 nM. Further, the IC50 at human EP1 receptor [2] is ≤ 100 nM.

Consider `CNCc1ccc(NC(=O)c2cc(C)n(Cc3cc(Br)cc4cc(C(C)C)oc34)n2)cc1` [Example 50, 1-{[5-Bromo-2-(1-methylethyl)-1-benzofuran-7-yl]methyl}-5-methyl-N-{4-[(methylamino)methyl]phenyl}-1H-pyrazole-3-carboxamidehydrochloride], for which, on human EP1 receptor [1], the Ki is ≤ 316 nM. For the same molecule, the IC50 at human EP1 receptor [2] is ≤ 100 nM.

With `CC(C)c1cc2cc(Cl)cc(Cc3ccc(C(=O)NN(C)C)o3)c2o1` [Example 39, 5-{[5-Chloro-2-(1-methylethyl)-1-benzofuran-7-yl]methyl}-N′,N′-dimethyl-2-furancarbohydrazide], the Ki on human EP3 receptor is 501 to 10000 nM; at human EP1 receptor [1], ≤ 316 nM.

In the case of `Cc1cc(C(=O)NN2CCCCC2)nn1Cc1cc(Cl)cc2cc(C(C)C)oc12` [Example 6, 1-{[5-Chloro-2-(1-methylethyl)-1-benzofuran-7-yl]methyl}-5-methyl-N-1-piperidinyl-1H-pyrazole-3-carboxamide], on human EP1 receptor [1], the Ki was ≤ 316 nM. Further, the IC50 at human EP1 receptor [2] was ≤ 100 nM.

For the molecule `CC(C)NC(=O)c1ccc(Cc2cc(Cl)cc3cc(C(C)C)oc23)o1` [Example 38, 5-{[5-Chloro-2-(1-methylethyl)-1-benzofuran-7-yl]methyl}-N-(1-methylethyl)-2-furancarboxamide], the Ki on human EP3 receptor is 501 to 10000 nM.

As to `CC(C)c1cc2cc(Cl)cc(Cc3cccc(C(=O)O)n3)c2o1` [Example 24], the Ki at human EP1 receptor [1] was ≤ 316 nM. Moreover, the IC50 at human EP1 receptor [2] was ≤ 100 nM.

On to `Cc1cc(C(=O)NN2CCOCC2)nn1Cc1cc(Br)cc2cc(C(C)C)oc12` [Example 18, 1-{[5-Bromo-2-(1-methylethyl)-1-benzofuran-7-yl]methyl}-5-methyl-N-4-morpholinyl-1H-pyrazole-3-carboxamide], for which the Ki on human EP1 receptor [1] was ≤ 316 nM. Further, at human EP1 receptor [2], the IC50 is ≤ 100 nM.

As for `CC(C)c1cc2cc(Cl)cc(Cc3ccc(C(=O)NCC4CCNCC4)o3)c2o1` [Example 48], the Ki at human EP1 receptor [1] was 1000 to 1580 nM. On human EP1 receptor [2], the IC50 was ≤ 100 nM.

For the molecule `Cc1cc(NC(=O)OCC2CCNCC2)nn1Cc1cc(Cl)cc2cc(C(C)C)oc12` [Example 4, 4-Piperidinylmethyl (1-{[5-chloro-2-(1-methylethyl)-1-benzofuran-7-yl]methyl}-5-methyl-1H-pyrazol-3-yl)carbamate Hydrochloride], the figures for the Ki on human EP3 receptor and on human EP1 receptor [1] were 501 to 10000 nM and ≤ 316 nM, respectively.

For `CCNCc1ccc(NC(=O)c2ccc(Cc3cc(Cl)cc4cc(C(C)C)oc34)o2)cc1` [Example 56, 5-{[5-Chloro-2-(1-methylethyl)-1-benzofuran-7-yl]methyl}-N-{4-[(ethylamino)methyl]phenyl}-2-furancarboxamide Hydrochloride], the Ki at human EP3 receptor was 501 to 10000 nM; on human EP1 receptor [1], ≤ 316 nM.
